Paper PMC7351026, “Serum Half-Lives for Short- and Long-Chain Perfluoroalkyl Acids after Ceasing Exposure from Drinking Water Contaminated by Firefighting Foam” (Environmental Health Perspectives, 2020)

What was measured:
[1] = Individual serum elimination rate and half-life (linear regression per employee); settings: individual estimate;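 for HL (half-life): half-life in years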
Method in brief: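 One-compartment, first-order model: for each employee and PFAS, the slope β of log serum concentration versus elapsed days (from clean water supply, over five samplings) gave k = −β and half-life = ln2/k. A positive slope left the half-life undetermined.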

[2] = PFAS levels in serum samples of airport employees (LC/MS/MS)
Method in brief: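 LC/MS/MS quantification (BEH C18, 5 mM ammonium acetate water:methanol to methanol gradient) after protein precipitation of 25 μL serum with isotopically labeled internal standards, FBS-matrix calibration. Samples stored at −80°C, collected at monthly intervals from September 2018 and run together in a single batch.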

[3] = 1st sampling (September 2018), count 17
[4] = 2nd sampling (October 2018), count 17
[5] = 3rd sampling (November, 2018), count 17
[6] = 4th sampling (December 2018), count 16
[7] = 5th sampling (January 2019), count 16
[8] = employees participated in first blood sampling and repeated blood and urine sampling, N=17
[9] = employees participated in first blood sampling only, N=9, 11-14 d after end of exposure
[10] = median of first serum samples, all 26 airport employees

For `O=S(=O)(O)C(F)(C(F)(F)F)C(F)(F)C(F)(F)C(F)(F)C(F)(F)C(F)(F)C(F)(F)F` (centres unmarked) [1m-PFOS, perfluoro-1-methylheptanesulfonate], the Elimination rate ([1]; subject 1, 5 samples) was 0.3 yearly, the “HL (half-life)” value ([1]; subject 1, 5 samples) was 2.0 year and the Elimination rate ([1]; subject 2, 5 samples) was 0.1 yearly. The “HL (half-life)” value ([1]; subject 2, 5 samples) was 5.4 year, the Elimination rate ([1]; subject 3, 5 samples) was 0.8 yearly and the “HL (half-life)” value ([1]; subject 3, 5 samples) was 0.9 year. For the same compound, the Elimination rate ([1]; subject 4, 5 samples) was −0.1 yearly, the Elimination rate ([1]; subject 5, 5 samples) was 0.1 yearly and the “HL (half-life)” value ([1]; subject 5, 5 samples) was 5.9 year. The Elimination rate ([1]; subject 6, 4 samples) was −0.1 yearly, the Elimination rate ([1]; subject 7, 5 samples) was −0.3 yearly and the Elimination rate ([1]; subject 8, 5 samples) was −0.5 yearly. For the same compound, the Elimination rate ([1]; subject 9, 5 samples) was −0.3 yearly, the Elimination rate ([1]; subject 10, 5 samples) was 0.6 yearly and the “HL (half-life)” value ([1]; subject 10, 5 samples) was 1.2 year. The Elimination rate ([1]; subject 11, 5 samples) was 1.9 yearly, the “HL (half-life)” value ([1]; subject 11, 5 samples) was 0.4 year and the Elimination rate ([1]; subject 12, 5 samples) was 0.03 yearly. The Elimination rate ([1]; subject 13, 5 samples) was 1.1 yearly, the “HL (half-life)” value ([1]; subject 13, 5 samples) was 0.6 year and the Elimination rate ([1]; subject 14, 4 samples) was 1.7 yearly. For the same compound, the “HL (half-life)” value ([1]; subject 14, 4 samples) was 0.4 year, the Elimination rate ([1]; subject 15, 5 samples) was 1.3 yearly and the “HL (half-life)” value ([1]; subject 15, 5 samples) was 0.6 year. For the same compound, the Elimination rate ([1]; subject 16, 5 samples) was −0.3 yearly, the Elimination rate ([1]; subject 17, 5 samples) was 2.2 yearly and the “HL (half-life)” value ([1]; subject 17, 5 samples) was 0.3 year. The “Serum PFAS level, 25 percentile” value [2, 3] was 0.48, the “Serum PFAS level, 75 percentile” value [2, 3] was 1.8 and the “Serum PFAS level, Max” value [2, 3] was 4.1. For the same compound, the “Serum PFAS level, Median” value [2, 3] was 1.0, the “Serum PFAS level, Min” value [2, 3] was 0.32 and the “Serum PFAS level, 25 percentile” value [2, 4] was 0.54. The “Serum PFAS level, 75 percentile” value [2, 4] was 1.4, the “Serum PFAS level, Max” value [2, 4] was 4.0 and the “Serum PFAS level, Median” value [2, 4] was 0.89. For the same compound, the “Serum PFAS level, Min” value [2, 4] was 0.26, the “Serum PFAS level, 25 percentile” value [2, 5] was 0.54 and the “Serum PFAS level, 75 percentile” value [2, 5] was 1.5. The “Serum PFAS level, Max” value [2, 5] was 4.4, the “Serum PFAS level, Median” value [2, 5] was 0.88 and the “Serum PFAS level, Min” value [2, 5] was 0.24. The “Serum PFAS level, 25 percentile” value [2, 6] was 0.47, the “Serum PFAS level, 75 percentile” value [2, 6] was 1.3 and the “Serum PFAS level, Max” value [2, 6] was 4.3. The “Serum PFAS level, Median” value [2, 6] was 0.91, the “Serum PFAS level, Min” value [2, 6] was 0.24 and the “Serum PFAS level, 25 percentile” value [2, 7] was 0.51. For the same compound, the “Serum PFAS level, 75 percentile” value [2, 7] was 1.3, the “Serum PFAS level, Max” value [2, 7] was 4.5 and the “Serum PFAS level, Median” value [2, 7] was 0.97. For the same compound, the “Serum PFAS level, Min” value [2, 7] was 0.26, the “PFAS in first serum sample, median (range)” value (“PFAS in first serum sample” for short) [2, 8] was 1.0 (0.32–4.1) ng/mL and the “PFAS in first serum sample” value [2, 9] was 0.52 (0.25–2.7) ng/mL. For the same compound, the “Initial serum PFAS level, max” value ([2]; females (N=7)) was 1.1 ng/mL, the “Initial serum PFAS level, median” value ([2]; females (N=7)) was 0.58 ng/mL and the “Initial serum PFAS level, min” value ([2]; females (N=7)) was 0.39 ng/mL. For the same compound, the “Initial serum PFAS level, Max” value ([2]; males (N=19)) was 4.1 ng/mL, the “Initial serum PFAS level, Min” value ([2]; males (N=19)) was 0.25 ng/mL and the “Initial serum PFAS level, median” value ([2]; males (N=19)) was 1.1 ng/mL.

For `O=S(=O)(O)C(F)(F)C(F)(F)C(F)(F)C(F)(F)C(F)(F)C(F)(F)C(F)(F)C(F)(F)F` [L-PFOS, linear perfluorooctane sulfonic acid], the Elimination rate ([1]; subject 1, 5 samples) was −0.2 yearly, the Elimination rate ([1]; subject 2, 5 samples) was 0.4 yearly and the “HL (half-life)” value ([1]; subject 2, 5 samples) was 1.7 year. The Elimination rate ([1]; subject 3, 5 samples) was 0.5 yearly, the “HL (half-life)” value ([1]; subject 3, 5 samples) was 1.3 year and the Elimination rate ([1]; subject 4, 5 samples) was −0.3 yearly. The Elimination rate ([1]; subject 5, 5 samples) was 0.6 yearly, the “HL (half-life)” value ([1]; subject 5, 5 samples) was 1.2 year and the Elimination rate ([1]; subject 6, 4 samples) was 0.04 yearly. The “HL (half-life)” value ([1]; subject 6, 4 samples) was 17 year, the Elimination rate ([1]; subject 7, 5 samples) was 0.006 yearly and the Elimination rate ([1]; subject 8, 5 samples) was −0.4 yearly. The Elimination rate ([1]; subject 9, 5 samples) was 0.4 yearly, the “HL (half-life)” value ([1]; subject 9, 5 samples) was 1.8 year and the Elimination rate ([1]; subject 10, 5 samples) was −0.2 yearly. For the same compound, the Elimination rate ([1]; subject 11, 5 samples) was 0.1 yearly, the “HL (half-life)” value ([1]; subject 11, 5 samples) was 4.7 year and the Elimination rate ([1]; subject 12, 5 samples) was 0.8 yearly. For the same compound, the “HL (half-life)” value ([1]; subject 12, 5 samples) was 0.9 year, the Elimination rate ([1]; subject 13, 5 samples) was 0.2 yearly and the “HL (half-life)” value ([1]; subject 13, 5 samples) was 3.7 year. For the same compound, the Elimination rate ([1]; subject 14, 4 samples) was 0.3 yearly, the “HL (half-life)” value ([1]; subject 14, 4 samples) was 2.0 year and the Elimination rate ([1]; subject 15, 5 samples) was 0.5 yearly. The “HL (half-life)” value ([1]; subject 15, 5 samples) was 1.3 year, the Elimination rate ([1]; subject 16, 5 samples) was 0.6 yearly and the “HL (half-life)” value ([1]; subject 16, 5 samples) was 1.2 year. For the same compound, the Elimination rate ([1]; subject 17, 5 samples) was 0.3 yearly, the “HL (half-life)” value ([1]; subject 17, 5 samples) was 2.1 year and the “Serum PFAS level, 25 percentile” value [2, 3] was 7.7. The “Serum PFAS level, 75 percentile” value [2, 3] was 15, the “Serum PFAS level, Max” value [2, 3] was 28 and the “Serum PFAS level, Median” value [2, 3] was 11. For the same compound, the “Serum PFAS level, Min” value [2, 3] was 5.5, the “Serum PFAS level, 25 percentile” value [2, 4] was 7.6 and the “Serum PFAS level, 75 percentile” value [2, 4] was 16. The “Serum PFAS level, Max” value [2, 4] was 24, the “Serum PFAS level, Median” value [2, 4] was 10 and the “Serum PFAS level, Min” value [2, 4] was 4.1. The “Serum PFAS level, 25 percentile” value [2, 5] was 7.3, the “Serum PFAS level, 75 percentile” value [2, 5] was 16 and the “Serum PFAS level, Max” value [2, 5] was 23. The “Serum PFAS level, Median” value [2, 5] was 11, the “Serum PFAS level, Min” value [2, 5] was 4.7 and the “Serum PFAS level, 25 percentile” value [2, 6] was 7.4. The “Serum PFAS level, 75 percentile” value [2, 6] was 14, the “Serum PFAS level, Max” value [2, 6] was 24 and the “Serum PFAS level, Median” value [2, 6] was 9.8. The “Serum PFAS level, Min” value [2, 6] was 4.4, the “Serum PFAS level, 25 percentile” value [2, 7] was 9.1 and the “Serum PFAS level, 75 percentile” value [2, 7] was 16. The “Serum PFAS level, Max” value [2, 7] was 23, the “Serum PFAS level, Median” value [2, 7] was 10 and the “Serum PFAS level, Min” value [2, 7] was 4.5. For the same compound, the “Serum level in the first samples, median (range)” value ([2]; all 26 airport employees) was 9.5 (5.4–28) ng/mL, the “PFAS in first serum sample” value [2, 8] was 11 (5.5–28) ng/mL and the “PFAS in first serum sample” value [2, 9] was 6.5 (5.4–13) ng/mL. The “Initial serum PFAS level, max” value ([2]; females (N=7)) was 13 ng/mL, the “Initial serum PFAS level, median” value ([2]; females (N=7)) was 9.3 ng/mL and the “Initial serum PFAS level, min” value ([2]; females (N=7)) was 5.5 ng/mL. The “Relative composition of PFAS in serum, weight basis” value ([2]; first serum samples, all 26 airport employees) was 8.6%, the “Relative composition of PFAS in serum, molar concentration basis” value ([2]; first serum samples, all 26 airport employees, listed as PFOS (linear)) was 7.0% and the “Initial serum PFAS level, Max” value ([2]; males (N=19)) was 28 ng/mL. For the same compound, the “Initial serum PFAS level, Min” value ([2]; males (N=19)) was 5.4 ng/mL, the “Initial serum PFAS level, median” value ([2]; males (N=19)) was 10 ng/mL and the “Serum concentration, molar basis” value [2, 10] was 0.019. The “Serum concentration, weight basis” value [2, 10] was 9.5 and the “Serum level, median (range)” value ([2]; second to fifth samplings, 17 airport employees) was 10 (4.1–24) ng/mL.
